Starred links: 1 amine or outer side, 2 acyl side, 3 side chain; linkers in the order of their positions; H or OH if unused. Positions of bridges follow the written chain, without caps; N, C: chain ends. Non-standard residues stand in square brackets, D forms with d. Residues, ends and D or L forms follow the SMILES beside them. X1 = O=C(O)CCCCCCCCCCCCCCCCCCC(=O)N[C@@H](CCCCNC(=O)COCCOCCNC(=O)COCCOCCNC(=O)CCC(=O)N(CCNC(=O)C[*:1])CCNC(=O)C[*:2])C(=O)O; NMeR = CN[C@@H](CCCNC(=N)N)C(=O)O; Hyp = O=C(O)[C@@H]1C[C@@H](O)CN1; hArg = N=C(N)NCCCC[C@H](N)C(=O)O; αMeF = C[C@](N)(Cc1ccccc1)C(=O)O; αMeL = CC(C)C[C@](C)(N)C(=O)O; αMeK = C[C@](N)(CCCCN)C(=O)O; Orn = NCCC[C@H](N)C(=O)O; Aib = CC(C)(N)C(=O)O
How the values were obtained:
AMY3R = biological target: T1, AMY3R (Homo sapiens, UniProt P30988); experiment: HTRF cAMP assay, AMY3R; assay type: cell-based; settings: HEK293/pGM-CREB-L-Luc/AMY3R pool, read-out: IC50 of receptor AMY3R
T1 construct: expressed in transfected cells
T1 sequence (P30988 25-474): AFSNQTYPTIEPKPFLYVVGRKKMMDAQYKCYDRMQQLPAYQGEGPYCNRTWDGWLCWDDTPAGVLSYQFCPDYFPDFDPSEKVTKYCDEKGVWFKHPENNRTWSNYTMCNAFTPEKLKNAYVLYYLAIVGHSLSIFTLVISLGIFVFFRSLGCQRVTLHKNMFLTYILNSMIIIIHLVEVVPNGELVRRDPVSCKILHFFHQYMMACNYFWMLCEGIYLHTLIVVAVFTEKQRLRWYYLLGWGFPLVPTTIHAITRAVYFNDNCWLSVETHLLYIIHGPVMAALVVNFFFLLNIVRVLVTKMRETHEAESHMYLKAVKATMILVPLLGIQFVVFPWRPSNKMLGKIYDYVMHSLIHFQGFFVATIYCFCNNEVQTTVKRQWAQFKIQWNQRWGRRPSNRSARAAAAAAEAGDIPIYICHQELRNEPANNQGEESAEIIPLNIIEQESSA
T1 sequence (O60896 24-148 partner): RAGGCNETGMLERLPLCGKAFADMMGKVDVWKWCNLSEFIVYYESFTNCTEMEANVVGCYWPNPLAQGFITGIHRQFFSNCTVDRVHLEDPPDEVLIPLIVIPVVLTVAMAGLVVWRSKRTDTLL
Source text: (§1) 2. The polypeptide derivatives prepared in Example 1 and Example 2 of the present disclosure can bind to the target AMYR and CTR receptors on the cell membrane, activate the receptors and release cAMP. Therefore, the activity of the analyte can be determined by using an HTRF (homogeneous time-resolved fluorescence) method and using a cAMP detection kit. The specific steps were as follows:
(§2) A stable transfected cell line of HEK293/pGM-CREB-L-Luc/AMY3R pool and HEK293/pGM-CREB-L-Luc/CTR pool was constructed. The polypeptide derivatives (i.e., AMY-001 to AMY-041) prepared in Examples 1 and 2 were subjected to 5-fold serial dilution from a maximum of 1000 nM to prepare a dilution series containing 8 to 11 concentration gradients. Cagrilintide and sCT were selected as positive controls for testing, and a dilution series was prepared according to the same method for testing. The test cell lines were selected and treated with cAMP-specific trypsin for digestion, and then suspended with 3 mL of serum-free DMEM medium by pipetting, and the cells were counted. 5 μL of IBMX (prepared with serum-free DMEM medium, 0.5 mM) and test cells (5 μL/7500 cells/well) were sequentially added to a 384-well plate, incubated under the conditions of 37° C., 5% CO2 for 30 minutes, then added with cAMP-d2 (5 μL, 1×) and Anti-cAMP-Cryptate (5 μL, 1×) and placed at room temperature for 1 hour. A HTRF value was determined by a chemiluminescence microplate reader, and the results were recorded. An activation curve was plotted using GraphPad Prism software to calculate an IC50 value of each polypeptide derivative. […] The IC50 values of some polypeptides were exemplarily shown in this example, see Table 3, FIG. 2 and FIG. 3 for details.

CTR = biological target: T2, CTR (Homo sapiens, UniProt P30988); experiment: HTRF cAMP assay, CTR; assay type: cell-based; settings: HEK293/pGM-CREB-L-Luc/CTR pool, read-out: IC50 of receptor CTR
T2 construct: expressed in transfected cells
T2 sequence (P30988 25-474): T1 sequence (P30988 25-474)
Source text: as §1, §2

EC50 (AMY3R)	EC50 (CTR)	Compound
0.0044 nM	0.0012 nM	CC(=O)N[C@@H](C)C(=O)N[C@@H](CO)C(=O)N[C@@H](Cc1c[nH]cn1)C(=O)N[C@@H](CC(C)C)C(=O)N[C@@H](CO)C(=O)N[C@H](C(=O)N[C@@H](C)C(=O)N[C@H]1CCCCNC(=O)CN(C(=O)CCCNC(=O)COCCOCCNC(=O)COCCOCCNC(=O)CC[C@H](NC(=O)CCCCCCCCCCCCCCCCCCC(=O)O)C(=O)O)CC(=O)NCCCC[C@@H](C(=O)N[C@@H](CC(C)C)C(=O)N[C@@H](Cc2c[nH]cn2)C(=O)N[C@@](C)(CCCCN)C(=O)N[C@@H](CC(C)C)C(=O)NC(C)(C)C(=O)N[C@@H](CC(=O)O)C(=O)N[C@@H](Cc2ccc(O)cc2)C(=O)N2CCC[C@H]2C(=O)N[C@@H](CCC(N)=O)C(=O)N[C@H](C(=O)N[C@@H](CC(=O)O)C(=O)N[C@H](C(=O)NCC(=O)N[C@@H](C)C(=O)NCC(=O)N[C@@H](CO)C(=O)N2C[C@H](O)C[C@H]2C(N)=O)C(C)C)[C@@H](C)O)NC(=O)[C@H](C)NC(=O)[C@H](CO)NC(=O)[C@H](CC(C)C)NC(=O)[C@H](CCCNC(=N)N)NC(=O)CNC(=O)[C@H](CC(C)C)NC1=O)[C@@H](C)O [AMY-021, Ac-ASHLSTAKLGRLSAKLH-(αMeK)-L-Aib-DYPQTDVGAGS-Hyp-NH2]
0.0523 nM	0.0415 nM	CC(=O)N[C@@H](C)C(=O)N[C@@H](CO)C(=O)N[C@@H](Cc1c[nH]cn1)C(=O)N[C@@](C)(CC(C)C)C(=O)N[C@@H](CO)C(=O)N[C@H](C(=O)N[C@@H](C)C(=O)N[C@H]1CSCC(=O)NCCN(C(=O)CCC(=O)NCCOCCOCC(=O)NCCOCCOCC(=O)NCCCC[C@H](NC(=O)CCCCCCCCCCCCCCCCCCC(=O)O)C(=O)O)CCNC(=O)CSC[C@@H](C(=O)N[C@@H](CC(C)C)C(=O)N[C@@H](Cc2c[nH]cn2)C(=O)N[C@@H](CCCCN)C(=O)N[C@@H](CC(C)C)C(=O)NC(C)(C)C(=O)N[C@@H](CC(=O)O)C(=O)N[C@@](C)(Cc2ccccc2)C(=O)N2CCC[C@H]2C(=O)N(C)[C@@H](CCCNC(=N)N)C(=O)N[C@H](C(=O)N[C@@H](CC(=O)O)C(=O)N[C@H](C(=O)NCC(=O)N[C@@H](C)C(=O)NCC(=O)N[C@@H](CO)C(=O)N2CCC[C@H]2C(N)=O)C(C)C)[C@@H](C)O)NC(=O)[C@H](C)NC(=O)[C@H](CO)NC(=O)[C@H](CC(C)C)NC(=O)[C@H](CCCNC(=N)N)NC(=O)CNC(=O)[C@H](CC(C)C)NC1=O)[C@@H](C)O [AMY-010, Ac-ASH-(aMeK)-STACLGRLSACLHKL-Aib-D-(αMeF)-P-(N-Me-R)-TDVGAGSP-NH2] (Ac-ASH[αMeL]STACLGRLSACLHKL[Aib]D[αMeF]P[NMeR]TDVGAGSP-NH2; linker 8-15 via X1)
0.0133 nM	0.0357 nM	CC(=O)N[C@@H](C)C(=O)N[C@@H](CO)C(=O)N[C@@H](Cc1c[nH]cn1)C(=O)N[C@@H](CC(C)C)C(=O)N[C@@H](CO)C(=O)N[C@H](C(=O)N[C@@H](C)C(=O)N[C@H]1CSCC(=O)NCCN(C(=O)CCC(=O)NCCOCCOCC(=O)NCCOCCOCC(=O)NCCCC[C@H](NC(=O)CCCCCCCCCCCCCCCCCCC(=O)O)C(=O)O)CCNC(=O)CSC[C@@H](C(=O)N[C@@H](CC(C)C)C(=O)N[C@@H](Cc2c[nH]cn2)C(=O)N[C@@](C)(CCCCN)C(=O)N[C@@H](CC(C)C)C(=O)NC(C)(C)C(=O)N[C@@H](CC(=O)O)C(=O)N[C@@H](Cc2ccc(O)cc2)C(=O)N2CCC[C@H]2C(=O)N(C)[C@@H](CCCNC(=N)N)C(=O)N[C@H](C(=O)N[C@@H](CC(=O)O)C(=O)N[C@H](C(=O)NCC(=O)N[C@@H](C)C(=O)NCC(=O)N[C@@H](CO)C(=O)N2CCC[C@H]2C(N)=O)C(C)C)[C@@H](C)O)NC(=O)[C@H](C)NC(=O)[C@H](CO)NC(=O)[C@H](CC(C)C)NC(=O)[C@H](CCCCNC(=N)N)NC(=O)CNC(=O)[C@H](CC(C)C)NC1=O)[C@@H](C)O [AMY-012, Ac-ASHLSTACLG-homoR-LSACLH-(αMeK)-L-Aib-DYP-(N-Me-R)-TDVGAGSP-NH2] (Ac-ASHLSTACLG[hArg]LSACLH[αMeK]L[Aib]DYP[NMeR]TDVGAGSP-NH2; linker 8-15 via X1)
0.0679 nM	0.102 nM	CC(=O)N[C@@H](C)C(=O)N[C@@H](CO)C(=O)N[C@@H](Cc1c[nH]cn1)C(=O)N[C@@H](CC(C)C)C(=O)N[C@@H](CO)C(=O)N[C@H](C(=O)N[C@@H](C)C(=O)N[C@H](C(=O)N[C@@H](CC(C)C)C(=O)NCC(=O)N[C@H]1CCCCNC(=O)CN(C(=O)COCCOCCNC(=O)CC[C@H](NC(=O)CCCCCCCCCCCCCCCCCCC(=O)O)C(=O)O)CC(=O)NCCCC[C@@H](C(=O)N[C@@H](CC(C)C)C(=O)NC(C)(C)C(=O)N[C@@H](CC(=O)O)C(=O)N[C@@H](Cc2ccc(O)cc2)C(=O)N2CCC[C@H]2C(=O)N[C@@H](CCC(N)=O)C(=O)N[C@H](C(=O)N[C@@H](CC(=O)O)C(=O)N[C@H](C(=O)NCC(=O)N[C@@H](C)C(=O)NCC(=O)N[C@@H](CO)C(=O)N2C[C@H](O)C[C@H]2C(N)=O)C(C)C)[C@@H](C)O)NC(=O)[C@H](Cc2c[nH]cn2)NC(=O)[C@H](CC(C)C)NC(=O)[C@H](CCC(=O)O)NC(=O)[C@H](C)NC(=O)[C@H](CO)NC(=O)[C@H](CC(C)C)NC1=O)C(C)C)[C@@H](C)O [AMY-022, Ac-ASHLSTAVLGKLSAELHKL-Aib-DYPQTDVGAGS-Hyp-NH2]
0.0414 nM	0.0894 nM	CC(=O)N[C@@H](C)C(=O)N[C@@H](CO)C(=O)N[C@@H](Cc1c[nH]cn1)C(=O)N[C@@H](CC(C)C)C(=O)N[C@@H](CO)C(=O)N[C@H](C(=O)N[C@@H](C)C(=O)N[C@H]1CSCC(=O)NCCN(C(=O)CCC(=O)NCCOCCOCC(=O)NCCOCCOCC(=O)NCCCC[C@H](NC(=O)CCCCCCCCCCCCCCCCCCC(=O)O)C(=O)O)CCNC(=O)CSC[C@@H](C(=O)N[C@@H](CC(C)C)C(=O)N[C@@H](Cc2c[nH]cn2)C(=O)N[C@@H](CCCN)C(=O)N[C@@H](CC(C)C)C(=O)NC(C)(C)C(=O)N[C@@H](CC(=O)O)C(=O)N[C@@](C)(Cc2ccccc2)C(=O)N2CCC[C@H]2C(=O)N[C@@H](CCCNC(=N)N)C(=O)N[C@H](C(=O)N[C@@H](CC(=O)O)C(=O)N[C@H](C(=O)NCC(=O)N[C@@H](C)C(=O)NCC(=O)N[C@@H](CO)C(=O)N2C[C@H](O)C[C@H]2C(N)=O)C(C)C)[C@@H](C)O)NC(=O)[C@H](C)NC(=O)[C@H](CO)NC(=O)[C@H](CC(C)C)NC(=O)[C@H](CCCNC(=N)N)NC(=O)CNC(=O)[C@H](CC(C)C)NC1=O)[C@@H](C)O [AMY-009, Ac-ASHLSTACLGRLSACLH-Orn-L-Aib-D-(αMeF)-PRTDVGAGS-Hyp-NH2] (Ac-ASHLSTACLGRLSACLH[Orn]L[Aib]D[αMeF]PRTDVGAGS[Hyp]-NH2; linker 8-15 via X1)

From patent US20260337245A1, “POLYPEPTIDE OR ANALOG THEREOF AND USE THEREOF” (Shenzhen Bay Laboratory, priority 2024, published 2026)
